Key:
[1] = Text: Where the controlled release core is in the form of a liquid, the amount and type of solvent used with SAIB should be optimized so as to obtain a liquid wherein the at least one therapeutically active agent is acceptably soluble.
In order to obtain a soluble liquid fill, the amounts of (i) SAIB, (ii) at least one biocompatible solvent, and (iii) at least one therapeutically active agent is optimized.

[2] = Viscosity of SAIB/solvent compositions, Cannon-Fenske viscometer; type: physicochemical; conditions: Cannon-Fenske viscometer of size 200 at 30° C.

| ethanol required to achieve solubility with SAIB [1] | viscosity (centipoises value) [2] [centipoises] | SMILES |
| --- | --- | --- |
| approximately 15 % (by weight) | – | CC(C)Cc1ccc(C(C)C(=O)O)cc1 (centres unmarked) [ibuprofen] |
| – | 1.3 | CCO [ethanol] |

From patent publication US20040224020A1, “Oral dosage forms with therapeutically active agents in controlled release cores and immediate release gelatin capsule coats” (priority 2002, published 2004)
